Source: paper PMC12830821 (Communications Biology, 2025)

Experiments:
Assay type in all cases: cell-based
[1] = biological target: T1, rat TRPM8 (rTRPM8) (Rattus norvegicus, UniProt Q8R455)
[2] = biological target: T2, human TRPM8 (hTRPM8) (Homo sapiens, UniProt Q7Z2W7)
[3] = biological target: chicken TRPM8 (cTRPM8) (Gallus gallus, UniProt A0AA95FIJ1)
[4] = biological target: T2, human TRPM8 (hTRPM8); assay: calcium imaging
[5] = biological target: T1, rat TRPM8 (rTRPM8); assay: calcium imaging

T2 sequence (Q7Z2W7 whole entry): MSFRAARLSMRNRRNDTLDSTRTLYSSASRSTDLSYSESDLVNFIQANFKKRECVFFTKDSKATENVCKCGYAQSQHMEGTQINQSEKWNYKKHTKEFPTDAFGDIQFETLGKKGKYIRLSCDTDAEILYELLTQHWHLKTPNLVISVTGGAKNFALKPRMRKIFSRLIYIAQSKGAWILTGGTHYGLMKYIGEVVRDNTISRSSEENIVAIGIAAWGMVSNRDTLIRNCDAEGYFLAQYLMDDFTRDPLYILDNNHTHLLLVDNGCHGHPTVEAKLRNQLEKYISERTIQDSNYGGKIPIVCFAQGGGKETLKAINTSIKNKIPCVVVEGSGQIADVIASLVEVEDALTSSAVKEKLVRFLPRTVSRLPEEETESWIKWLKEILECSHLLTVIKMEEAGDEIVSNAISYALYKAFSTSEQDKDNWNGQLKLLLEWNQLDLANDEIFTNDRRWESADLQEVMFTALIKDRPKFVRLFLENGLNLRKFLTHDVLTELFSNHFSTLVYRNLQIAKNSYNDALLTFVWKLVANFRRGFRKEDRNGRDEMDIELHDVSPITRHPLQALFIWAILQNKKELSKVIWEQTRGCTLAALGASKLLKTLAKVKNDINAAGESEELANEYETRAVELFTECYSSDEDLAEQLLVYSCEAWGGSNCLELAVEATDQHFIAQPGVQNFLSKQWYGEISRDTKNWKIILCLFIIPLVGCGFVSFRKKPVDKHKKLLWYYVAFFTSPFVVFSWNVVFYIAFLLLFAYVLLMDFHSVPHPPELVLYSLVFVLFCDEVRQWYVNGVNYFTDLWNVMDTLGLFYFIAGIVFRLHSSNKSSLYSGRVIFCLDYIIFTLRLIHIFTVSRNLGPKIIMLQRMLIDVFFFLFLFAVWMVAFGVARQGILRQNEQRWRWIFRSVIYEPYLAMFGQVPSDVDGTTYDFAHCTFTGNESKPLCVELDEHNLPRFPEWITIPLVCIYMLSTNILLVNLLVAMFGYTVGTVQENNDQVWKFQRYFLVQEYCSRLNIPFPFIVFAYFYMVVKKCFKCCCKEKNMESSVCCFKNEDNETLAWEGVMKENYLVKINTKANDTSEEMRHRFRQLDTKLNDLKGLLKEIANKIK
T1 sequence (Q8R455 whole entry): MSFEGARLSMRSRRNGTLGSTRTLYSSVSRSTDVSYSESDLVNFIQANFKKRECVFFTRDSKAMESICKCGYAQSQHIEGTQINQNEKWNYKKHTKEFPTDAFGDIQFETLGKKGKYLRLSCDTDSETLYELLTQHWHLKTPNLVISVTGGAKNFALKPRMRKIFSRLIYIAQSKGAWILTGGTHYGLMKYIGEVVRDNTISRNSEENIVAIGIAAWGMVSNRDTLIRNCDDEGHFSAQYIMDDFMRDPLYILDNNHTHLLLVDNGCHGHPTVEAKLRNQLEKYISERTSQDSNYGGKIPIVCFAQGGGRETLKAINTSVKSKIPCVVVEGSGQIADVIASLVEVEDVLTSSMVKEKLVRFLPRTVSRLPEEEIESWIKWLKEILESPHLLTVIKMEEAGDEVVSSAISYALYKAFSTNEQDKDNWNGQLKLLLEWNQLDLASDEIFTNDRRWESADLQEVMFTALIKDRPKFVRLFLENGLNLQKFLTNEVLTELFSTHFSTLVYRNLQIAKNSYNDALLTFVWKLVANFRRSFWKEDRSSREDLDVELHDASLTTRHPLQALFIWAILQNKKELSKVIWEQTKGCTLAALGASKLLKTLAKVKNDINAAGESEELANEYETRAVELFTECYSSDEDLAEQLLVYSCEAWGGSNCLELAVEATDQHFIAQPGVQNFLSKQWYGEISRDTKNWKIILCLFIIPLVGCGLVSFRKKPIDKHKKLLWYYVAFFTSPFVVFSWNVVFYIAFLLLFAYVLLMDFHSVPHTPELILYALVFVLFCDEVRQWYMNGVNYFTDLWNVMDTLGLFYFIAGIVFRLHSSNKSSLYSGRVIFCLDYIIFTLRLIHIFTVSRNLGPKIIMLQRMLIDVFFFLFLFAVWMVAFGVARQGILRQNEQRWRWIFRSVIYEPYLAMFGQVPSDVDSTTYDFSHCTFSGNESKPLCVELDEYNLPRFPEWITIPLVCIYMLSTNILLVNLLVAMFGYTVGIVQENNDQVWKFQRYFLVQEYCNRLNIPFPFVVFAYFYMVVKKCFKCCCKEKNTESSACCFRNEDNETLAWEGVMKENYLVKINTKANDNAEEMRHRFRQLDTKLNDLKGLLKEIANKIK
Chain of chicken TRPM8 (cTRPM8) (A0AA95FIJ1 1-1111): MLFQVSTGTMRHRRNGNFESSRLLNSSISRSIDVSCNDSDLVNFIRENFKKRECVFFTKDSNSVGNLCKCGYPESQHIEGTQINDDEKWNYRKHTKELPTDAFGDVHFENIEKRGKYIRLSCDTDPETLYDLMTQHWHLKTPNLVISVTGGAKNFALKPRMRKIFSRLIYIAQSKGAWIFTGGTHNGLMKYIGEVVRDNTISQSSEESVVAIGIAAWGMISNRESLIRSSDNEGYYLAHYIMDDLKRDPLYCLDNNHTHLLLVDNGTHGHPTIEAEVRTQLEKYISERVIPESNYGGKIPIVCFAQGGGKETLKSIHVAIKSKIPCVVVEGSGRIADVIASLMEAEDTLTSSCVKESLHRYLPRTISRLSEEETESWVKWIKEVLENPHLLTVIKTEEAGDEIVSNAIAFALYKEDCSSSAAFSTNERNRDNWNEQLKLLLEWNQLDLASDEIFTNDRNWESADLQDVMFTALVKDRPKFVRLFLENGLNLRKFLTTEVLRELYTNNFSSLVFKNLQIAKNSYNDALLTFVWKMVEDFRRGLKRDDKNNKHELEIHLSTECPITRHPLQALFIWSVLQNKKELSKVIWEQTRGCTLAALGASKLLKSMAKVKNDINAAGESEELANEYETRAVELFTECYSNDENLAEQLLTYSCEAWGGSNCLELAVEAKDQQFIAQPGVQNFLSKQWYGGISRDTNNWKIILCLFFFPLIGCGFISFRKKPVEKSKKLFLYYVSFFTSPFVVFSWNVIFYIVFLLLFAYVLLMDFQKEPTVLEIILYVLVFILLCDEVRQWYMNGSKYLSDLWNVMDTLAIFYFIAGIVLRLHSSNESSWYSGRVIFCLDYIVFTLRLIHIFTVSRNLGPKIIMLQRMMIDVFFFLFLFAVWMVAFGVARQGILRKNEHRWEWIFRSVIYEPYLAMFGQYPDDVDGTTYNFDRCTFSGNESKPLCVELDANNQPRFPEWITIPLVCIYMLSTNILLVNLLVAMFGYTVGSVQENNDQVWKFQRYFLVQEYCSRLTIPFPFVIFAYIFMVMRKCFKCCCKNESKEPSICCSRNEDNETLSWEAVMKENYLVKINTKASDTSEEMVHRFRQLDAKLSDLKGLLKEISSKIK

| Structure (SMILES) | EC50 [1] | EC50 [2] [nM] | EC50 [3] [nM] | calcium imaging (10 μM) in transfected HEK293T cells [4] | calcium imaging (10 μM) in transfected HEK293T cells [5] |
| --- | --- | --- | --- | --- | --- |
| CCCCCCCP(=O)(C(C)C)C(C)C [C-1, 1-di(propan-2-yl)phosphorylheptane] | Rat TRPM8 showed intermediate EC50 values | 2430 | 250 | – | – |
| O=C1NC(c2cccc([N+](=O)[O-])c2)=CCN1c1ccccc1O [icilin, 1-(2-hydroxyphenyl)-4-(V3-nitrophenyl)-l,2,3,6-tetrahydropyrimidine-2-one] | – | – | – | As expected, icilin activated only the mammalian orthologs | As expected, icilin activated only the mammalian orthologs |
